# Laboratory results taken from PubChem BioAssay (NCI).
#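 Test compounds were applied to cells in 96-well plates for 48 hours at 5 doses. GI50 marks 50% less growth. TGI: concentration producing complete growth inhibition.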
# Columns and labels:
# Experiment in all cases: NCI anticancer screen, dose series, 48 h
# A498 renal = tested on: A498 renal
# SK-MEL-2 melanoma = tested on: SK-MEL-2 melanoma
# SNB-19 CNS = tested on: SNB-19 CNS
# MDA-MB-231 breast = tested on: MDA-MB-231 breast
# A549 NSCLC = tested on: A549 NSCLC
# K-562 leukemia = tested on: K-562 leukemia
# HOP-62 NSCLC = tested on: HOP-62 NSCLC
# HT29 colon = tested on: HT29 colon
# SW-620 colon = tested on: SW-620 colon
# OVCAR-4 ovarian = tested on: OVCAR-4 ovarian
# MDA-MB-468 breast = tested on: MDA-MB-468 breast
# HCT-15 colon = tested on: HCT-15 colon
# LOX IMVI melanoma = tested on: LOX IMVI melanoma
# CCRF-CEM leukemia = tested on: CCRF-CEM leukemia
# EKVX NSCLC = tested on: EKVX NSCLC
# SN12C renal = tested on: SN12C renal
# SK-MEL-28 melanoma = tested on: SK-MEL-28 melanoma
# MOLT-4 leukemia = tested on: MOLT-4 leukemia
# MCF7 breast = tested on: MCF7 breast
# ACHN renal = tested on: ACHN renal
# IGROV1 ovarian = tested on: IGROV1 ovarian
# COLO 205 colon = tested on: COLO 205 colon
# NCI/ADR-RES ovarian = tested on: NCI/ADR-RES ovarian
# OVCAR-5 ovarian = tested on: OVCAR-5 ovarian
# UACC-257 melanoma = tested on: UACC-257 melanoma
# SNB-75 CNS = tested on: SNB-75 CNS
# TK-10 renal = tested on: TK-10 renal
# MDA-MB-435 = tested on: MDA-MB-435
# HCC-2998 colon = tested on: HCC-2998 colon
# T-47D breast = tested on: T-47D breast
# BT-549 breast = tested on: BT-549 breast
# SF-268 CNS = tested on: SF-268 CNS
# HL-60(TB) leukemia = tested on: HL-60(TB) leukemia
# PC-3 prostate = tested on: PC-3 prostate
# OVCAR-8 ovarian = tested on: OVCAR-8 ovarian
# DU-145 prostate = tested on: DU-145 prostate
# SK-MEL-5 melanoma = tested on: SK-MEL-5 melanoma
# HS 578T breast = tested on: HS 578T breast
# NCI-H522 lung = tested on: NCI-H522 lung
# NCI-H23 lung = tested on: NCI-H23 lung
# HOP-92 NSCLC = tested on: HOP-92 NSCLC
# SF-295 CNS = tested on: SF-295 CNS
# RPMI-8226 leukemia = tested on: RPMI-8226 leukemia
# SR leukemia = tested on: SR leukemia
# 786-0 renal = tested on: 786-0 renal
# UACC-62 melanoma = tested on: UACC-62 melanoma
# HCT-116 colon = tested on: HCT-116 colon
# KM12 colon = tested on: KM12 colon
# OVCAR-3 ovarian = tested on: OVCAR-3 ovarian
# SK-OV-3 ovarian = tested on: SK-OV-3 ovarian
# M14 melanoma = tested on: M14 melanoma
# MALME-3M melanoma = tested on: MALME-3M melanoma
# NCI-H226 lung = tested on: NCI-H226 lung
# UO-31 renal = tested on: UO-31 renal
# CAKI-1 renal = tested on: CAKI-1 renal
# NCI-H460 lung = tested on: NCI-H460 lung
# SF-539 CNS = tested on: SF-539 CNS
# U251 CNS = tested on: U251 CNS
structure (smiles),measurement,setting,value
COC(=O)CCn1c(-c2ccc(-n3cc(-c4ccc(O[C@H]5O[C@@H]6OC7(C)CC[C@H]8[C@H](C)CC[C@@H]([C@H]5C)[C@@]68OO7)cc4)nn3)cc2)nc2ccccc21,GI50,A498 renal,5400 nM
same,TGI,A498 renal,> 9250 nM
same,GI50,SK-MEL-2 melanoma,238 nM
same,TGI,SK-MEL-2 melanoma,812 nM
same,GI50,SNB-19 CNS,274 nM
same,TGI,SNB-19 CNS,> 9250 nM
same,GI50,MDA-MB-231 breast,208 nM
same,TGI,MDA-MB-231 breast,2420 nM
same,GI50,A549 NSCLC,277 nM
same,TGI,A549 NSCLC,> 9250 nM
same,GI50,K-562 leukemia,38.8 nM
same,TGI,K-562 leukemia,> 9250 nM
same,GI50,HOP-62 NSCLC,558 nM
same,TGI,HOP-62 NSCLC,> 9250 nM
same,GI50,HT29 colon,75.3 nM
same,TGI,HT29 colon,> 9250 nM
same,GI50,SW-620 colon,43.8 nM
same,TGI,SW-620 colon,> 9250 nM
same,GI50,OVCAR-4 ovarian,155 nM
same,TGI,OVCAR-4 ovarian,> 9250 nM
same,GI50,MDA-MB-468 breast,177 nM
same,TGI,MDA-MB-468 breast,588 nM
same,GI50,HCT-15 colon,37.6 nM
same,TGI,HCT-15 colon,> 9250 nM
same,GI50,LOX IMVI melanoma,37.1 nM
same,TGI,LOX IMVI melanoma,158 nM
same,GI50,CCRF-CEM leukemia,51.7 nM
same,TGI,CCRF-CEM leukemia,> 9250 nM
same,GI50,EKVX NSCLC,150 nM
same,TGI,EKVX NSCLC,> 9250 nM
same,GI50,SN12C renal,189 nM
same,TGI,SN12C renal,> 9250 nM
same,GI50,SK-MEL-28 melanoma,148 nM
same,TGI,SK-MEL-28 melanoma,> 9250 nM
same,GI50,MOLT-4 leukemia,37.7 nM
same,TGI,MOLT-4 leukemia,1620 nM
same,GI50,MCF7 breast,40.9 nM
same,TGI,MCF7 breast,> 9250 nM
same,GI50,ACHN renal,262 nM
same,TGI,ACHN renal,1360 nM
same,GI50,IGROV1 ovarian,257 nM
same,TGI,IGROV1 ovarian,> 9250 nM
same,GI50,COLO 205 colon,68.5 nM
same,TGI,COLO 205 colon,> 9250 nM
same,GI50,NCI/ADR-RES ovarian,307 nM
same,TGI,NCI/ADR-RES ovarian,> 9250 nM
same,GI50,OVCAR-5 ovarian,134 nM
same,TGI,OVCAR-5 ovarian,> 9250 nM
same,GI50,UACC-257 melanoma,276 nM
same,TGI,UACC-257 melanoma,> 9250 nM
same,GI50,SNB-75 CNS,257 nM
same,TGI,SNB-75 CNS,> 9250 nM
same,GI50,TK-10 renal,386 nM
same,TGI,TK-10 renal,> 9250 nM
same,GI50,MDA-MB-435,78 nM
same,TGI,MDA-MB-435,> 9250 nM
same,GI50,HCC-2998 colon,319 nM
same,TGI,HCC-2998 colon,> 9250 nM
same,GI50,T-47D breast,37.4 nM
same,TGI,T-47D breast,> 9250 nM
same,GI50,BT-549 breast,127 nM
same,TGI,BT-549 breast,693 nM
same,GI50,SF-268 CNS,242 nM
same,TGI,SF-268 CNS,> 9250 nM
same,GI50,HL-60(TB) leukemia,98.4 nM
same,TGI,HL-60(TB) leukemia,572 nM
same,GI50,PC-3 prostate,40 nM
same,TGI,PC-3 prostate,> 9250 nM
same,GI50,OVCAR-8 ovarian,128 nM
same,TGI,OVCAR-8 ovarian,> 9250 nM
same,GI50,DU-145 prostate,485 nM
same,TGI,DU-145 prostate,> 9250 nM
same,GI50,SK-MEL-5 melanoma,216 nM
same,TGI,SK-MEL-5 melanoma,1130 nM
same,GI50,HS 578T breast,205 nM
same,TGI,HS 578T breast,5570 nM
same,GI50,NCI-H522 lung,97.6 nM
same,TGI,NCI-H522 lung,1290 nM
same,GI50,NCI-H23 lung,65.5 nM
same,TGI,NCI-H23 lung,6490 nM
same,GI50,HOP-92 NSCLC,128 nM
same,TGI,HOP-92 NSCLC,765 nM
same,GI50,SF-295 CNS,223 nM
same,TGI,SF-295 CNS,> 9250 nM
same,GI50,RPMI-8226 leukemia,42.7 nM
same,TGI,RPMI-8226 leukemia,5120 nM
same,GI50,SR leukemia,40.2 nM
same,TGI,SR leukemia,1140 nM
same,GI50,786-0 renal,330 nM
same,TGI,786-0 renal,> 9250 nM
same,GI50,UACC-62 melanoma,135 nM
same,TGI,UACC-62 melanoma,1970 nM
same,GI50,HCT-116 colon,34.3 nM
same,TGI,HCT-116 colon,> 9250 nM
same,GI50,KM12 colon,52.5 nM
same,TGI,KM12 colon,> 9250 nM
same,GI50,OVCAR-3 ovarian,100 nM
same,TGI,OVCAR-3 ovarian,> 9250 nM
same,GI50,SK-OV-3 ovarian,640 nM
same,TGI,SK-OV-3 ovarian,> 9250 nM
same,GI50,M14 melanoma,360 nM
same,TGI,M14 melanoma,> 9250 nM
same,GI50,MALME-3M melanoma,175 nM
same,TGI,MALME-3M melanoma,5420 nM
same,GI50,NCI-H226 lung,163 nM
same,TGI,NCI-H226 lung,2300 nM
same,GI50,UO-31 renal,194 nM
same,TGI,UO-31 renal,1050 nM
same,GI50,CAKI-1 renal,333 nM
same,TGI,CAKI-1 renal,> 9250 nM
same,GI50,NCI-H460 lung,274 nM
same,TGI,NCI-H460 lung,> 9250 nM
same,GI50,SF-539 CNS,197 nM
same,TGI,SF-539 CNS,> 9250 nM
same,GI50,U251 CNS,61 nM
same,TGI,U251 CNS,> 9250 nM
